Laboratory results published in patent US10858305B2, “Perillyl alcohol-3-bromopyruvate conjugate and methods of treating cancer” (NeOnc Technologies, Inc., priority 2016, dated 2020).
Entries after “also recorded” stand apart in the source; their conditions may differ. Like-named read-outs stand apart in the source and are kept apart here.

Assays:
[1] = tested on: cleaved caspase 7, cleaved PARP, γ-H2AX in MCF7, MDA-MB-231 and HCT116 cells; test: Western blot for apoptosis markers; assay type: cell-based, human; conditions: STS as positive control
Description: (A) FACS analysis of HCT116 cells after treatment for 2, 4, or 8 hours with vehicle, 30 μM 3-BP, 30 μM NEO218, or 1 μM staurosporine (STS). […] (B) Western blot analysis of apoptotic markers. In the top section, MDA-MB-231 cells were treated with 30 μM NEO218 or 1 μM STS for various time points. In the lower section, HCT116 cells were treated with the indicated concentrations of 3-BP, NEO218, or STS for 16 hours. In all cases cell lysates were prepared and analyzed for the well-established apoptotic markers cleaved PARP, cleaved (i.e., activated) caspase 7 (cl. C-7), and phosphorylated (i.e., active) H2AX. Actin was used as a loading control. (C) HCT116 cells were pretreated with 50 μM Z-VAD-FMK for one hour, followed by the addition of increasing concentrations of 3-BP or NEO218. Cell viability was determined by MTT assay 24 hours later. Data points are averages from n=3.
The capacity for NEO218 to induce apoptosis was evaluated in a series of experiments. Three different cell lines were treated 3-BP and NEO218. Drug-treated cells were harvested, and cellular lysates were analyzed by Western blot for the presence of the three well-established markers of apoptosis: • cleaved caspase 7 (cl. C7); • cleaved (cl.) vs. full-length (f.l.) PARP; and, • induction of γ-H2AX (which indicates DNA cleavage).
The appearance of cl. C7 and cl. PARP is indicative of ongoing apoptotic processes. In all cases, lysates were also probed for the presence of actin as a control.
Two breast cancer cell lines (MCF7 and MDA-MB-231) and one colon cancer cell line (HCT116) were treated with increasing concentrations of NEO218 or 3-BP. As a control, they were also treated with staurosporine (STS), a known potent inducer of apoptosis. Western blot analyses for the presence of apoptosis markers are shown in the left panels of FIG. 6.
Total cell lysates were analyzed by Western blot analysis as described earlier. Primary antibodies against cleaved caspase 7 and PARP were obtained from Cell Signaling Technology (Danvers, Mass.), and antibodies against actin (C-11) and MCT1 (H-1) were obtained from Santa Cruz Biotechnology (Santa Cruz, Calif.). All antibodies were used according to the manufacturers' recommendations, except that in the case of MCT1 detection, the boiling step was omitted before loading the samples onto the polyacrylamide gel. All immunoblots were repeated at least once to confirm the results.

[2] = tested on: HCT116 cells; test: MTT assay with or without supplemental pyruvate; assay type: cell-based, human; conditions: HCT116, MTT after 24 hours
Description: (§1) (A) HCT116 cells were treated with 40 μM 3-BP or NEO218 in the presence or absence of 1 mM NAC, 1 mM GSH, or 50 mM methyl-pyruvate (or sodium pyruvate, which produced similar outcomes). Cell viability was determined 24 hours later by MTT assay. (B) HCT116 cells were treated with 30 or 100 μM 3-BP or NEO218. After 30 minutes, cell lysates were prepared and analyzed for GAPDH activity. (C) Lysates from non-drug-treated MDA-MB-231 cells were mixed with 3-BP or NEO218 in the presence or absence of NAC or GSH at the concentrations mentioned in A. After 1 hour of incubation, GAPDH activity was determined. GAPDH activity in the absence of drug treatment was set at 100% (corresponding to 0.06 units/min×10^6 cells).
To test this hypothesis, HCT116 cells were treated with increasing concentrations of NEO218 and 3-BP (individually) in the presence or absence of 10 mM pyruvate. Viability of cells was determined 24 hours later by MTT cell viability assay.

[3] = tested on: HCT116 cells; test: Colony formation assay in HCT116 cells; assay type: cell-based, human; conditions: for IC50: Homo sapiens, HCT-116, HCT116, 48 hours drug then 10-14 days, read-out: half-maximal effect, CFA
Description: (A) MTT assay was performed after 24 hours. […] (B) LDH assay was performed after […]. LDH release by untreated cells was set to 1. Relative fold increase is shown (n=3).
Depending on the cell line (and plating efficiency), 250-800 cells were seeded into each well of a 6-well plate and treated as described in detail previously. After 12-16 days, colonies (defined as groups of >50 cells) were visualized by staining for 4 hours with 1% methylene blue (in methanol), and then were-counted. Experiments were repeated at least once, but usually more often under different conditions.

[4] = target: T1, GAPDH (Homo sapiens, UniProt P04406); test: GAPDH activity assay after 30 minutes drug treatment of living cells; assay type: cell-based; design: endogenous in cells
T1 sequence (P04406 whole entry): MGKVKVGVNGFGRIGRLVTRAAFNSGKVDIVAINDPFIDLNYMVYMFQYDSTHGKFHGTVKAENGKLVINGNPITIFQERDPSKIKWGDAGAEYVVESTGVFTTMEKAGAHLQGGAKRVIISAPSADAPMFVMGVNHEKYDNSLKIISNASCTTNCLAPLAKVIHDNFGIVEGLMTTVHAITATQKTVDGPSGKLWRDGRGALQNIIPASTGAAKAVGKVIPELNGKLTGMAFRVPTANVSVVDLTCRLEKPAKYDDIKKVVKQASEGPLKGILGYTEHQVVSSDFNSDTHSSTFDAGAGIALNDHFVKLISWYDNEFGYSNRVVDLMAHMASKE
Description: as §1
Enzymatic activity of GAPDH in vitro was measured with the Colorimetric GAPDH Assay kit (ScienCell Research Laboratories, Carlsbad, Calif.). This assay is based on the oxidization of β-NADH to β-NAD in the presence of 3-phosphoglyceric acid, ATP and GAPDH. GAPDH activity is determined by assaying the rate of NADH oxidation, which is proportional to the reduction in absorbance at 340 nm over time (ΔA340 nm/min). One hundred thousand cells were lysed in 100 μL cell lysis buffer and incubated with the above components. Changes in absorbance over 10 minutes were calculated and normalized to untreated controls. Data are presented as percentage of controls. […]

[5] = target: T1, GAPDH; test: GAPDH activity assay, drugs added to cell lysates (cell-free); assay type: biochemical; design: endogenous in cells; host or cells: MDA-MB-231 cell lysate; conditions: for inhibition of GAPDH enzyme activity: cell lysates incubated with drug for 1 hour; for effect of NAC or GSH on drug-induced inhibition of GAPDH activity: cell lysates, 1 mM NAC or GSH
Description: as §1
The capacity of NEO218 to inhibit the enzymatic function of GAPDH in a cell-free system was investigated. Cell lysates were incubated with NEO218 and 3-BP (individually) for 1 hour, and enzymatic activity of GAPDH (glyceraldehyde-3-phosphate dehydrogenase) was determined. Increasing concentrations of NEO218 and 3-BP were applied. Separately, 50 μM NEO218 and 3-BP, respectively, were applied together with 1 mM NAC or GSH. The enzymatic activity of GAPDH was determined with the use of a commercially available GAPDH activity assay kit.
Enzymatic activity of GAPDH in vitro was measured with the Colorimetric GAPDH Assay kit (ScienCell Research Laboratories, Carlsbad, Calif.). This assay is based on the oxidization of β-NADH to β-NAD in the presence of 3-phosphoglyceric acid, ATP and GAPDH. GAPDH activity is determined by assaying the rate of NADH oxidation, which is proportional to the reduction in absorbance at 340 nm over time (ΔA340 nm/min). One hundred thousand cells were lysed in 100 μL cell lysis buffer and incubated with the above components. Changes in absorbance over 10 minutes were calculated and normalized to untreated controls. Data are presented as percentage of controls. Two types of drug treatments were performed: in one approach, drugs were added to proliferating cells for 30 minutes under regular cell culture conditions; in the other approach, drugs were added to cell lysates for 1 hour at 4° C.

Structure (SMILES) | induction of apoptosis markers (cleaved PARP, cleaved caspase 7, γ-H2AX) [1] | effect of supplemental pyruvate on drug-induced cell death [2] | IC50 [3] | IC50 ([4]; HCT116 cells treated 30 minutes, then lysed, read-out: IC50 (GAPDH activity)) | inhibition of GAPDH enzyme activity [5] | effect of NAC or GSH on drug-induced inhibition of GAPDH activity [5] | block of colony formation in CFA ([3]; HCT116, 40 μM) | IC50 [4]
C=C(C)[C@@H]1CC=C(COC(=O)C(=O)CBr)CC1 [NEO218, 3-bromo-2-oxo-propionic acid 4-isopropenyl-cyclohex-1-enylmethyl ester] | responded only minimally, if at all; also recorded: barely affects these same markers | no protection at all when pyruvate was added; also recorded: pyruvate had no effect on viability at all | ~3 µM | < 30 µM | potent inhibition of GAPDH enzyme activity; also recorded: potently decreased enzymatic GAPDH activity | effectively prevented the drug-induced inhibition of GAPDH activity; also recorded: completely prevented | – | –
O=C(O)C(=O)CBr [3-BP, 3-bromopyruvate] | responded only minimally, if at all | profound protection; also recorded: excess pyruvate was able to completely prevent cell death | ~3 µM | – | potent inhibition of GAPDH enzyme activity; also recorded: potently decreased enzymatic GAPDH activity | effectively prevented the drug-induced inhibition of GAPDH activity; also recorded: completely prevented | 99% | < 30 µM
